# According to patent publication US20230065158A1, “OXABICYCLOHEPTANES FOR TREATMENT OF SMALL CELL LUNG CANCER” (Lixte Biotechnology, Inc., priority 2021, published 2023):
# Experiments:
# H524 cells = assay: Cell Counting Kit-8 cytotoxicity and drug combination, H524; conditions: Homo sapiens, NCI-H524, 72 h, read-out: Cytotoxicity IC50, H524; 72 hours
# Description: (§1) A Mann-Whitney U test was used for comparison between the normal and SCLC samples. FIG. 1B: IHC for PP2A was conducted on TMA tissue sections and images were captured at 4× or 20× using a 3D-Histech PANNORAMIC SCAN whole slide scanner (3D-Histech, Budapest, Hungary). […] TMAs were scored in normal (n=24) and tumor (n=79) cores on a scale from 0 (no staining/no protein expression) to 3+(strong staining/high protein expression). FIG. 1C: Summary bar graph of the average PP2A subunit staining. IHC staining intensity of normal and tumor cores. […] FIG. 1D: In order to compare the expression of PP2A subunits A and C, cell lysates from seven SCLC cell lines and HBEC 3KT (non-malignant cell line) were subjected to western blotting. FIG. 1E: PP2A activity was determined using a serine/threonine phosphatase activity assay (Millipore) after 24 h exposure to cantharidin (10 μM) and LB-100 (5 μM). […] The Cell Counting Kit-8 assay detected cell H524 and H69 cell viability. […] FIGS. 1I-1K: Graphs depict the mean+SEM of percent viability for cells (n=3). Colony formation assays were used to count the ability of H524 (FIGS. 11 and 1J) and H69 (FIGS. 1K and 1L) cells to form colonies. […] Representative images of colonies at 4× are shown under the graph (n=2).*p<0.05; **, p<0.01; *** p<0.001; ****, p<0.0001. Experiments were repeated in triplicate and representative data are shown.
# H82 cells = assay: Cell Counting Kit-8 cytotoxicity, H82; conditions: Homo sapiens, NCI-H82, 72 h, read-out: Cytotoxicity IC50, H82
# Description: (§2) To determine specific cytotoxicity, we used Cell Counting Kit-8 (Dojindo Molecular Technologies, Rockville, Md.) as previously described (50).
# H146 cells = assay: Cell Counting Kit-8 cytotoxicity, H146; conditions: Homo sapiens, NCI-H146, 72 h, read-out: Cytotoxicity IC50, H146
# Description: as §2
# H526 cells = assay: Cell Counting Kit-8 cytotoxicity, H526; conditions: Homo sapiens, NCI-H526, 72 h, read-out: Cytotoxicity IC50, H526
# Description: as §2
# H524 and H69 cells = assay: Colony formation assay; format: cell-based; conditions: both cell lines; H524/H69: LB-100 2.5/20 μM, carboplatin 4/20 μM, etoposide 3/30 μM
# Description: as §1
# H69 cells = assay: Cell Counting Kit-8 cytotoxicity and drug combination, H69; conditions: Homo sapiens, NCI-H69, 72 h, read-out: Cytotoxicity IC50, H69; 72 hours
# Description: as §1
# H446 cells = assay: Cell Counting Kit-8 cytotoxicity, H446; conditions: Homo sapiens, NCI-H446, 72 h, read-out: Cytotoxicity IC50, H446
# Description: as §2
# PP2A = biological target: T1, PP2A (Homo sapiens, UniProt P67775); assay: PP2A immunoprecipitation Ser/Thr phosphatase activity assay in treated H524 cells; format: cell-based; conditions: cantharidin 10 μM, 24 h
# T1 construct: endogenous in cells; host or cells: H524 (human SCLC) cells
# Description: FIGS. 1A-IL depict the effects of LB-100 on PP2A-A expression in SCLC tumors and cells. […] A Mann-Whitney U test was used for comparison between the normal and SCLC samples. FIG. 1B: IHC for PP2A was conducted on TMA tissue sections and images were captured at 4× or 20× using a 3D-Histech PANNORAMIC SCAN whole slide scanner (3D-Histech, Budapest, Hungary). […] TMAs were scored in normal (n=24) and tumor (n=79) cores on a scale from 0 (no staining/no protein expression) to 3+(strong staining/high protein expression). FIG. 1C: Summary bar graph of the average PP2A subunit staining. IHC staining intensity of normal and tumor cores. There was a statistically significant difference between normal and tumor tissue (p<0.001). FIG. 1D: In order to compare the expression of PP2A subunits A and C, cell lysates from seven SCLC cell lines and HBEC 3KT (non-malignant cell line) were subjected to western blotting. FIG. 1E: PP2A activity was determined using a serine/threonine phosphatase activity assay (Millipore) after 24 h exposure to cantharidin (10 μM) and LB-100 (5 μM). […] LB-100 alone or in combination with carboplatin inhibited proliferation and colony formation in SCLC cells. The Cell Counting Kit-8 assay detected cell H524 and H69 cell viability. […] FIGS. 1I-1K: Graphs depict the mean+SEM of percent viability for cells (n=3). […]
# H446 spheroids = H446 spheroids with drugs and T cells, live imaging; format: cell-based; conditions: without T cells, 48 h
# Description: FIGS. 7A-7G depict results of T cells infiltration in H446 spheroids in the presence of LB100 and atezolizumab. FIG. 7A: Schematic of the effect of activated T cells on H446 spheroid degradation. At time point 0, single spheroids in 96 well plate were treated with LB-100, atezolizumab and T cells. Beads mimic in vivo T cell activation by two action signals CD3 and CD28. IncuCyte® Live-Cell Analysis System was used for the spheroidal imaging. Right panel presents spheroidal degeneration after 48 h incubation with LB-100, atezolizumab and activated T cells. FIGS. 7B and 7C: Automated image analysis provides metrics (0 h-μm, […]) and spheroid area (yellow-bright field mask). Column bars present mean values of spheroids at 0h. Representative images in bright field mask. […]
# Cytotoxic CD8+ cells were isolated from whole blood, buffy coat of healthy donors following the protocol described in the Methods. […] Spheroid survival was monitored for 48 hours and their diameters were measured from phase contrast images. […]
# H446 were generated as described in Materials and Methods (Monitoring of spheroid growth and cytotoxicity with the IncuCyte® Live-Cell Analysis System and IncuCyte® Cytotox reagent) following incubation with T cells and drugs. The effect of LB100 and atezolizumab in the presence of T cells was monitored with IncuCyte 3D Multi-Tumor Spheroid assay.
# T1 sequence (P67775 whole entry): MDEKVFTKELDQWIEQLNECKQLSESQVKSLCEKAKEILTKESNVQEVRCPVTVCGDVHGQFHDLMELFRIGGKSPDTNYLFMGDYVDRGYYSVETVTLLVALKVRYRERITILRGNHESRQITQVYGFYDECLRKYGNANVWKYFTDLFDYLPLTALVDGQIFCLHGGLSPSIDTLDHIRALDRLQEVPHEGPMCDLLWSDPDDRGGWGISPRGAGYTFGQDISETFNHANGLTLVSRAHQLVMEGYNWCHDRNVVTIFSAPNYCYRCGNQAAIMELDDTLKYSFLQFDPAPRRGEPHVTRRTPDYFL
# T1 sequence (P30153 whole entry partner): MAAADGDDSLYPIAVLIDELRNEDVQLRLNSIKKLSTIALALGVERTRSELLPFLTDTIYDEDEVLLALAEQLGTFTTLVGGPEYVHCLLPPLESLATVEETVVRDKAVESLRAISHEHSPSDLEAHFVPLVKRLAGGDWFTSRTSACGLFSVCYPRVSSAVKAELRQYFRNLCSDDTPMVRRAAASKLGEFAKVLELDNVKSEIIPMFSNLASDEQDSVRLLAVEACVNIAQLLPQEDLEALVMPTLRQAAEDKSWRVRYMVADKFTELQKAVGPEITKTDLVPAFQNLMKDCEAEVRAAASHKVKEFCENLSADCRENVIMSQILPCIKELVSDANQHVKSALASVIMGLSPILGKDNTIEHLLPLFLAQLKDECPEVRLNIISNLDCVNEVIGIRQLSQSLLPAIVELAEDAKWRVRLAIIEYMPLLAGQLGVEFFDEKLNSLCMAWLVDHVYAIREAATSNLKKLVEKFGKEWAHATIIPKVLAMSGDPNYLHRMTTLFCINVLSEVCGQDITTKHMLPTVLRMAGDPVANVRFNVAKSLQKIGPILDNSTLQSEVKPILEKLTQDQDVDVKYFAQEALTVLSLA
molecule,measurement,setting,value
COc1cc([C@@H]2c3cc4c(cc3[C@@H](O[C@@H]3O[C@@H]5CO[C@@H](C)O[C@H]5[C@H](O)[C@H]3O)[C@H]3COC(=O)[C@H]23)OCO4)cc(OC)c1O [Etoposide],IC50,H524 cells,3 µM
same,IC50,H82 cells,22.6 µM
same,IC50,H146 cells,31.2 µM
same,IC50,H526 cells,2.8 µM
same,colony formation,H524 and H69 cells,significantly reduced colony formation
same,IC50,H69 cells,30 µM
same,IC50,H446 cells,3 µM
"C[C@@]12C(=O)OC(=O)[C@]1(C)[C@H]1CC[C@@H]2O1 [cantharidin, reference compound]",PP2A activity reduced by,PP2A,~90%
atezolizumab: humanized immunoglobulin (Ig) G1 monoclonal antibody that targets PD-L1 [reference compound],"effect on spheroids (degeneration), drug alone",H446 spheroids,no effect
